Measured values reported in ChEMBL document CHEMBL1126321, “Antitumor agents. 123. Synthesis and human DNA topoisomerase II inhibitory activity of 2'-chloro derivatives of etoposide and 4 beta-(arylamino)-4'-O-demethylpodophyllotoxins” (J Med Chem, 1992).

Key:
[1] = target: T1, DNA topoisomerase II (Homo sapiens) (UniProt P11388+Q02880); assay: Evaluated for the inhibition of human DNA Topoisomerase II; format: protein assay
[2] = Concentration required for 50% reduction in KB cell number after 3-day incubation; format: functional, cell-based, Homo sapiens
Nucleic Acid = assay: Effect on cellular protein DNA complex formation(%) at 10 uM in comparison with etoposide; format: functional
[3] = target: T1, DNA topoisomerase II (Homo sapiens); assay: Compound was evaluated for the inhibition of human DNA Topoisomerase II; format: protein assay

Row | Structure (SMILES) | ID50 [1] [µM] | IC50 [2] [µM] | ID50 [3] [µM] | Complex formation (Nucleic Acid) [%]
1 | COc1cc([C@@H]2c3cc4c(cc3[C@@H](Nc3ccc([N+](=O)[O-])cc3)[C@H]3COC(=O)[C@H]23)OCO4)c(Cl)c(OC)c1O | – | > 7.2 | > 100 | 0
2 | COc1cc([C@@H]2c3cc4c(cc3[C@@H](Nc3ccc5c(c3)OCO5)[C@H]3COC(=O)[C@H]23)OCO4)cc(OC)c1O | 10 | 0.68 | – | 279
3 | COc1cc([C@@H]2c3cc4c(cc3[C@@H](Nc3ccc5c(c3)OCCO5)[C@H]3COC(=O)[C@H]23)OCO4)c(Cl)c(OC)c1O | > 100 | > 7 | – | 0
4 | COc1cc([C@@H]2c3cc4c(cc3[C@@H](Nc3ccc(Cl)cc3)[C@H]3COC(=O)[C@H]23)OCO4)c(Cl)c(OC)c1O | > 100 | > 7.3 | – | 0
5 | COc1cc([C@@H]2c3cc4c(cc3[C@@H](Nc3ccc([N+](=O)[O-])cc3)[C@H]3COC(=O)[C@H]23)OCO4)cc(OC)c1O | – | 0.49 | – | 323
6 | COc1cc([C@@H]2c3cc4c(cc3[C@@H](Nc3cccc(O)c3)[C@H]3COC(=O)[C@H]23)OCO4)cc(OC)c1O | – | 0.45 | – | 290
7 | COc1cc([C@@H]2c3cc4c(cc3[C@@H](Nc3ccc5c(c3)OCO5)[C@H]3COC(=O)[C@H]23)OCO4)c(Cl)c(OC)c1O | > 100 | > 7.2 | – | 0
8 | COc1cc([C@@H]2c3cc4c(cc3[C@@H](Nc3cccc(O)c3)[C@H]3COC(=O)[C@H]23)OCO4)c(Cl)c(OC)c1O | > 100 | 5.7 | – | 0
9 | COc1cc([C@@H]2c3cc4c(cc3[C@@H](Nc3ccc(F)cc3)[C@H]3COC(=O)[C@H]23)OCO4)cc(OC)c1O | – | 0.24 | – | 213
10 | COc1cc([C@@H]2c3cc4c(cc3[C@@H](O[C@@H]3O[C@@H]5CO[C@@H](C)O[C@H]5[C@H](O)[C@H]3O)[C@H]3COC(=O)[C@H]23)OCO4)cc(OC)c1O [ETOPOSIDE] | – | 0.2 | – | 100

The next lines start with results.

Row | ID50 [1] [µM] | IC50 [2] [µM] | ID50 [3] [µM] | Structure (SMILES) | Complex formation (Nucleic Acid) [%]
11 | > 50 | > 22.3 | – | COc1cc([C@@H]2c3cc4c(cc3[C@@H](O)[C@H]3COC(=O)[C@H]23)OCO4)c(Cl)c(OC)c1O | 15.6
12 | > 100 | > 7.5 | – | COc1cc([C@@H]2c3cc4c(cc3[C@@H](Nc3ccc(F)cc3)[C@H]3COC(=O)[C@H]23)OCO4)c(Cl)c(OC)c1O | 0
13 | > 50 | > 6.4 | – | COc1cc([C@@H]2c3cc4c(cc3[C@@H](O[C@@H]3O[C@@H]5CO[C@@H](C)O[C@H]5[C@H](O)[C@H]3O)[C@H]3COC(=O)[C@H]23)OCO4)c(Cl)c(OC)c1O | 6.1
14 | > 100 | > 6.8 | – | COc1cc([C@@H]2c3cc4c(cc3[C@@H](Nc3ccc(Br)cc3)[C@H]3COC(=O)[C@H]23)OCO4)c(Cl)c(OC)c1O | 0
15 | > 100 | > 7.2 | – | COc1cc([C@@H]2c3cc4c(cc3[C@@H](Nc3cccc([N+](=O)[O-])c3)[C@H]3COC(=O)[C@H]23)OCO4)c(Cl)c(OC)c1O | 0
